For experiment [1], the system named is MMP-3 production of chondrocytes. Put plainly: MMP-3 production of IL-1β-treated chondrocytes (MMP-3 activity in culture supernatant). In kind it is cell-based. The settings on record: Oryctolagus cuniculus, Chondrocyte, 48 h, rabbit chondrocytes, IL-1β 1 ng/ml, two days culture, average of three samples, read-out: Production inhibition rate (%) (MMP-3). The source says: In order to study utility of the present compound, actions of the present compound on MMP-3 production and degradation of proteoglycan after IL-1β treatment were studied by using chondrocytes separated from femurs of rabbit knee joints according to the report of Nose et al. (J. Rheumatology, 24, 550-554 (1997)). The action on MMP-3 production was studied by measuring MMP-3 activity. The action on degradation of proteoglycan was studied by measuring glycosaminoglycan (GAG) being a degradation product of proteoglycan. Femurs of knee joints of male Japanese white rabbits were enucleated. Surface cartilage of the femur was sliced into small pieces, and then tissues were dissociated by enzyme treatment to prepare chondrocytes. A mammal cell culture basal medium D-MEM (Dulbecco's Modified Eagle Medium, produced by Gibco Co., Ltd.) containing β-ketoglutaric acid (5 μg/ml), L-ascorbic acid (50 μg/ml), lactoalbumin hydrolyzate (0.2 mg/ml), penicillin (100 U/ml) and streptomycin (100 μg/ml) (hereinafter referred to as “medium A”) was prepared. […] A culture supernatant was collected, and MMP-3 activity in the supernatant was measured with MMP-3 assay Kit (produced by Yagai Co., Ltd.). […]

Experiment [2] relates to mobility of knee joint, rabbit-immobilized models. Put plainly: Improvement effect on mobility of knee joint in rabbit-immobilized models. In kind it is in vivo, NZW rabbits. The settings on record: for Mobility of knee joint (degree): measured on 29th day, control 42, average of ten samples. The text has this: In order to study in vivo effects of the present compound on osteoarthritis, an improvement effect on a mobility of a knee joint was investigated by using rabbit-immobilized models. A test compound was suspended in a 1% aqueous methyl cellulose solution to prepare test compound solutions having desired concentrations. Knee joints of right hind paws of NZW rabbits (13 weeks old, body weight: 2.97 to 3.27 kg) were fixed in an extended position with plaster bandages under sodium pentobarbital (25 mg/kg) anesthesia. Administering orally the test compound (amount of liquid to be administered: 10 ml/kg) to the rabbits for four weeks, the rabbits were sacrificed by exsanguination on the 29th day, and then mobilities of the knee joints were measured. A similar experiment was carried out by using a 1% aqueous methyl cellulose solution (10 ml/kg) as a control instead of the test compound. The mobility of the knee joint was determined from a difference between a maximum flection angle obtained when a paw joint of the rabbit was vertically loaded with a load of 400 g and a maximum extension angle.

Experiment [3] concerns degradation of proteoglycan in chondrocytes. Put plainly: Degradation of proteoglycan in IL-1β-treated chondrocytes (GAG concentration in supernatant). In kind it is cell-based. The note with it: Oryctolagus cuniculus, Chondrocyte, 48 h, rabbit chondrocytes, IL-1β 1 ng/ml, two days culture, average of three samples, read-out: Degradation inhibition rate (%) (proteoglycan). The source says:
In order to study utility of the present compound, actions of the present compound on MMP-3 production and degradation of proteoglycan after IL-1β treatment were studied by using chondrocytes separated from femurs of rabbit knee joints according to the report of Nose et al. (J. Rheumatology, 24, 550-554 (1997)). The action on MMP-3 production was studied by measuring MMP-3 activity. The action on degradation of proteoglycan was studied by measuring glycosaminoglycan (GAG) being a degradation product of proteoglycan. Femurs of knee joints of male Japanese white rabbits were enucleated. Surface cartilage of the femur was sliced into small pieces, and then tissues were dissociated by enzyme treatment to prepare chondrocytes. A mammal cell culture basal medium D-MEM (Dulbecco's Modified Eagle Medium, produced by Gibco Co., Ltd.) containing β-ketoglutaric acid (5 μg/ml), L-ascorbic acid (50 μg/ml), lactoalbumin hydrolyzate (0.2 mg/ml), penicillin (100 U/ml) and streptomycin (100 μg/ml) (hereinafter referred to as “medium A”) was prepared. […] A GAG concentration in the supernatant was measured according to the method of Farndale et al. (Biochim. Biophys. Acta, 883, 173-177 (1986)). […]

Each structure is given as a SMILES string.

The term inhibition denotes the change of the read-out against control, counted positive when it falls. With `CC(C)(S)C(=O)N[C@@H](CS)C(=O)O` [Bucillamine, bucillamine], the figures for the inhibition at 3 µM in experiment [1] and in experiment [3] were 28% and 19%, respectively. Moreover, the results for the “Mobility of knee joint (degree)” value in experiment [2] (10 mg/kg orally for four weeks), in experiment [2] (30 mg/kg orally for four weeks) and in experiment [2] (100 mg/kg orally for four weeks) were 46 degree, 48 degree and 53 degree, respectively. Further, the “Effect on mobility of the rabbit knee joint (in words)” value in experiment [2] (10 to 100 mg/kg orally for four weeks) is recorded as “improves the mobility of the rabbit knee joint dose-dependently”.

The values are drawn from patent publication US6576668B1, “Remedies for arthrosis deformans” (Santen Pharmaceutical Co., Ltd., priority 1999, dated 2003).
